Laboratory results published in article PMC9313945, “Peptide Aggregation Induced Immunogenic Rupture (PAIIR)” (Advanced Science, 2022).

Key:
OVCAR‐8 cells [1] = test: Live-dead imaging of OVCAR-8 cells; assay type: cell-based, human; conditions: OVCAR-8, 0.5 mM peptide, 6 h, RPMI with 10% FBS; negative peptide added first, then positive
Description: We used the human ovarian cancer cell line OVCAR‐8 as our initial model to identify the effect of the peptides on cells. All cell culture experiments were performed in an RPMI cell culture medium with 10% FBS. At 0.5 mM (i.e., above the overall CAC), the individual peptides mixed on the cells by promptly adding the first negative, then positive counterparts. The viability of the cells was measured for 6h through live‐dead imaging (Figure 3A). […] Because the peptides, if aggregate, form one‐dimensional structures, the shape of the aggregates is not likely to be effective on the action of the peptides. [II] has the lowest CAC and highest ordered aggregation (Figure 2B–D). Additionally, the equilibrium time of [II] aggregations was the shortest among the tried groups (Table 1 ). These all indicate that [II] peptides have the highest affinity to each other, which creates aggregations strong and fast enough to induce cell death.
To understand the effect of peptide aggregates versus peptides alone on the cell death identified with [WW] and [II], we performed a live/dead assay with individual peptides at 0.5 mM after 6h (Figure 3A). […] Similarly, the negative [WW] […] Positive charged peptides containing W are promiscuous residues for membrane damaging peptides, possibly because of W's “anchoring” role; W is abundant in membrane proteins, particularly near the lipid–water interface.^[ [37], [38] ^]
Positively and negatively charged self‐assembling peptides were mixed 30 min prior to experiment except where otherwise stated. The viability of the cell lines was measured by using CellTiter‐Glo 2.0 Reagent (Promega G9248). The luminescent signal was measured in accordance with the manufacturer's instructions. Measurements were carried out with BioTek Neo2SM microplate reader and relative viability was calculated. Live‐Dead assay was carried out using Viability/Cytotoxicity Assay kit (BIOTIUM 30002). After peptide treatment, cells were treated with calcein and ethidium homodimer in accordance with the manufacturer's instructions. […]

OVCAR‐8 cells [2] = test: Caspase-3 and GSDME cleavage, western blot; assay type: cell-based, human; conditions: OVCAR-8, 50 µM cisplatin for 24 h
Source text: Regulated cell death via an inducer is concentration and time‐dependent and therefore controllable. On the other hand, unregulated cell death cannot be controlled to the same extent as it mainly results from mechanical forces or temperature. The unregulated cell death releases an instantaneous burst of DAMPs, while the DAMP release from regulated cell death is prolonged. Therefore, regulated ICD is desired for a controlled immune response. Regulated necrotic cell deaths are caspase‐dependent.^[ [50], [51] ^] To identify whether [II]‐induced cell death is regulated, we analyzed the cleavage of caspase‐3, a known mediator of apoptosis, and GSDME mediated pyroptosis (regulated necrosis).^[ [2], [52] ^] We compared the caspase‐3 cleavage among different cell death modalities; we used cisplatin ‐ a known apoptosis inducer in the OVCAR‐8 cell line.^[ [53] ^] We also used heat treatment to induce multiple cell death modalities, including necrosis, apoptosis, and necroptosis.^[ [54] ^] Additionally, we applied a freeze/thaw (F/T) method, a common technique to induce unregulated necrosis.^[ [55] ^] […]
Protein samples were diluted in Laemmli buffer and boiled for 5 min at 96 °C. […] Lastly, western blotting luminol reagent solution was added on top of the membranes, and chemiluminescence signal was detected by Azure c600 Imaging Biosystems.

Compound | Cell viability / cell death, live-dead imaging (OVCAR‐8 cells [1]) | Caspase-3 cleavage (OVCAR‐8 cells [2])
KFFIIK | does not cause cell death | 
N.N.[Cl][Pt][Cl] [Cisplatin, cisplatin] |  | showed caspase‐3 cleavage
KFFWWK | induced the cell death | 
EFFWWE | did not show any cell death | 
